{
  "source": "paper PMC9387934",
  "about": "“Randomized single oral dose phase 1 study of safety, tolerability, and pharmacokinetics of Iminosugar UV-4 Hydrochloride (UV-4B) in healthy subjects” (PLoS Neglected Tropical Diseases, 2022)",
  "key": {"[1]": {"assay": "Cardiovascular assessment in dogs, single dose GLP study (UV4-COV-0023)", "assay_type": "in vivo", "details": "dog, 50 mg/kg", "text": "dependent from lowest to highest partitioning in mouse, rat, human, and dog. Mean blood cell partitioning ranged from 29.7% to 37.2% in mouse, 32.1% to 35.1% in rat, 32.7% to 53.3% in human, and 58.6% to 63.8% in dog. […]\nhepatocytes. Metabolism was minimal and appears to involve O-demethylation, oxidation, and direct glucuronidation of UV-4. Three metabolites were tentatively identified in mouse and dog hepatocytes, whereas only the O-demethylation and oxidation metabolites, but not the direct glucuronidation product of UV-4, were found in human hepatocytes.\nFollowing a single oral dose, UV-4 appears to be rapidly excreted with t1/2 values ranging from 2 hours in ferrets, 3 to 5 hours in mice and rats, and 4 to 9 hours in dogs. In rats, urinary excretion of UV-4 after an oral dose of UV-4B was rapid, with the highest percent dose excreted in the initial 0 to 4 hour period after dosing. […]\nBased on the dog NOAEL [10 mg/kg/dose TID] and the appropriate conversion recommended in the FDA guidance (e.g., 60 kg body weight for humans), the HED for the NOAEL of UV-4B in dog is 333 mg TID. Considering that the lowest dose tested in dogs (2 mg/kg TID or expressed as HED, 67 mg TID) was associated with decreases in PLT count (mild), increases in aPTT (very mild), increases in AST (up to 3x BL), and histopathological changes, a 100-fold safety factor was applied to the NOAEL. […]"}, "[2]": {"parameters": "method as in Investigator’s Brochure (IB)", "details": "in vivo; ref Investigator’s Brochure (IB); cited from earlier work"}, "[3]": {"assay": "Reproductive toxicity upper limit study in rabbits, 13 days", "assay_type": "in vivo, rabbit", "details": "50 mg/kg/day", "protocol": "7. Reproductive toxicity:\nUV-4B has been evaluated for developmental and reproductive toxicity in fertility and early embryonic development in rats, embryo-fetal development in rats and rabbits, and pre- and postnatal development in rats. In male and female rats given UV-4B at 8, 20, and 50 mg/kg/day before mating and continuing through Gestation Day 13, a […]\nobserved at 50 mg/kg/day. […]\ncount but following a 21-week treatment-free period there was complete recovery in pregnancy and fertility indices However, decrease in testicular weight, sperm motility […]\nidentify the upper limit of reproductive toxicity, a dose of 50 mg/kg/day for 12 […]\nIn a study designed to identify the upper limit of reproductive toxicity, a dose of 50 […]\nrabbit offspring. The rat and rabbit doses are equivalent to 486 and 966 mg/day, […]\nIn summary, findings that have been identified in the UV-4B toxicology studies so far include effects on the GI tract (including ulcers/erosions), lymphocytes and lymphoid tissue, reduction in PLT count, and increases in transaminases (AST>ALT). Findings were generally consistent across mouse, dog, and rat, apart from the isolated finding of swollen paws/legs and perioral appearance and red skin which was seen only in the rat. […]"}},
  "note": "Counter-ions that a name gives are not always drawn.",
  "data": [
    {"compound": "COCCCCCCCCCN1C[C@H](O)[C@@H](O)[C@H](O)[C@H]1CO", "note": "[UV-4B, N-(9’-methoxynonyl)-1-deoxynojirimycin hydrochloride]", "values": [
      {"measurement": "Multiple of predicted minimum clinically efficacious dose at which arterial pulse pressure decreased", "setting": "[1]", "result": "approximately 30 fold"},
      {"measurement": "Mouse bone marrow micronucleus", "setting": "[2]", "result": "not found to be mutagenic or clastogenic"},
      {"measurement": "Human equivalent of the rabbit dose", "setting": "[3]", "result": 966, "unit": "mg/day"}
    ]}
  ]
}
